The record followed here is patent US20070105931A1, “Methods and compositions for inhibiting the proliferation of prostate cancer cells” (Mayo Foundation for Medical Education and Research, priority 2003, published 2007).

Where only a bound is given, the exact number is not on record here.

The subject of experiment [1] is STAT3. The experiment is described as follows: Western blot of STAT3 and phosphorylated STAT3 in IL6-treated LNCaP cells. In kind it is cell-based, human. The protocol:
Experiments were then performed to determine if STAT3 is phosphorylated following exposure to IL6.
The same cells were treated with 50 μM of a potent phosphatase inhibitor, peroxovanadate (POV), to determine if the nimesulide-mediated inhibition of phosphorylation of STAT3 by IL6 was due to activation of one or more phosphatases. […] Therefore, the inhibitory effect of nimesulide on phosphorylation of STAT3 by IL6 may be caused by activation of one or more phosphatases, because the inhibitor could partially reverse the reduced phosphorylation of STAT3 by nimesulide. It was noted that POV alone had no effect on phosphorylation of STAT3 in the absence of IL6.
On the technique in general: A western blot detects proteins with antibodies after separation by electrophoresis.

In experiment [2] the test system is LNCaP cells. The experiment is described as follows: Growth response (MTS cell proliferation assay), LNCaP. In kind it is cell-based, human. Particulars: MTS assay 6 days after treatment. How it is done: (§1) Human prostate cancer cell lines LNCaP (American Type Culture Collection, Manassas, Va.) and LAPC-4 (kindly provided by Dr. Charles L. Sawyers; Zhu et al., 1999, Endocrinology, 140:5451-4) were maintained in RPMI 1640 (Mediatech, Hercules, Calif.) containing 5% FBS (Biofluids, Rockville, Md.) at 37° C. and 5% CO2. To avoid potential interference of existing steroids in FBS, the media were first replaced by serum-free RPMI 1640 for 24 h. Cells were then cultured in RPMI 1640 with 5% charcoalstripped FBS supplemented with or without 1 nM Mib (New England Nuclear, Boston, Mass.), a nomnetabolizable, synthetic androgen.
(§2) Cells were plated in 24-well plates at 2×10^4 cells/well. […] MTS assay (Promega, Madison, Wis.) was performed to determine cell proliferation 6 days after the treatment. To measure secreted PSA and hK2 levels, 400 μl of spent medium from cells treated for 6 days were collected. PSA and hK2 proteins levels were determined using specific immunoassays (Mayo Immunochemical Core Facility). These measurements were used to the calculate 50% inhibitory concentration (IC50) of each of the NSAIDs.

The test system of experiment [3] is PSA. In words: Secreted PSA protein level (immunoassay), LNCaP. It counts as cell-based, human. The note with it: for IC50: LNCaP cells, secreted PSA in spent medium, treated 6 days. The protocol: (§3) FIG. 1 is a graph showing the effects of NSAIDs on the expression of PSA and hK2 proteins in prostate cancer cells ±1 nM Mib. […] PSA and hK2 values were normalized to growth response measured by a 3-(4,5-dimethylthiazol-2-yl)-2,5-diphenyltetrazolium bromide assay and expressed as a percentage of that group treated with Mib only. Error bars indicate the SE of four separate experiments.
as §1, §2

In experiment [4] the test system is hK2. In words: Secreted hK2 protein level (immunoassay), LNCaP. In kind it is cell-based, human. The note with it: for IC50: LNCaP cells, secreted hK2 in spent medium, treated 6 days. The protocol: as §3, §1, §2
For experiment [5], the system named is LAPC-4 cells. The experiment is described as follows: Growth response (MTS cell proliferation assay), LAPC-4. It counts as cell-based, human. The note with it: MTS assay 6 days after treatment. The protocol: as §1, §2
Background: Tetrazolium assays rely on reduction of a dye to a coloured formazan, in cell work by metabolically active cells.

Experiment [6] deals with PSA. In words: Secreted PSA protein level (immunoassay), LAPC-4. It counts as cell-based, human. Particulars: LAPC-4 cells, secreted PSA in spent medium, treated 6 days. The protocol: as §3, §1, §2
Experiment [7] deals with hK2. In words: Secreted hK2 protein level (immunoassay), LAPC-4. In kind it is cell-based, human. The note with it: LAPC-4 cells, secreted hK2 in spent medium, treated 6 days. How it is done:
as §3, §1, §2

The subject of experiment [8] is FKBP51. In words: Western blot of androgen-up-regulated FKBP51 protein. In kind it is cell-based, human. The note with it: 1 nM Mib. The protocol: (§4) Cells were seeded at 1×10^5 cells/plate in 100 mm dishes. […] The cells were collected by centrifugation and washed with nimesulide for 15 or 24 h. The cells were collected by centrifugation and washed with cold PBS. Cell lysates were prepared in radioimmunoprecipitation assay buffer (PBS containing 1% NP40, 0.5% sodium deoxycholate, 0.1% SDS plus freshly added protease inhibitors, 100 μg/ml phenylmethylsulfonyl fluoride, 30 μl/ml aprotinin, and 1 mM sodium orthovanadate) and used for Western blot analysis. The sample filters were immunoblotted with c-Jun, phospho-c-Jun (Cell Signaling, Beverly, Mass.), AR (PharMingen, San Diego, Calif.), and FKBP51 (a gift from Dr. D. O. Toft; Mayo Clinic) specific primary antibodies and horseradish peroxidase-conjugated secondary antibodies and visualized by enhanced chemiluminescence (Amersham Pharmacia, Piscataway, N.J.).

Experiment [9] has as its system AR. The experiment is described as follows: Western blot of AR protein expression. It counts as cell-based, human. Particulars: concentrations used in the transfections. The protocol: as §4
The test system of experiment [10] is c-Jun. In words: Western blot of c-Jun protein in LNCaP cells. In kind it is cell-based, human. Particulars: 24 h of treatment. The protocol:
as §4

Experiment [11] concerns androgen receptor. The experiment is described as follows: IL6-activated hK2 ARE-SV40-pGL3 reporter, transient transfection. The note with it: celecoxib 50 μM, nimesulide 100 μM; IL6 50 ng/ml; androgen 1 nM. It counts as cell-based, human. How it is done: Experiments were performed to determine whether or not IL6 increased expression of PSA and/or hK2.
The subject of experiment [12] is AR/ARE (hK2 3xARE-SV40 minimal promoter). In words: hK2 3xARE luciferase reporter assay in LNCaP cells. The note with it: P<0.05, 24 h. On the technique in general: Reporter assays use an easily measured gene product as a stand-in for the process of interest.
Experiment [13] deals with AR promoter (−1380/+577). In words: AR promoter-luciferase reporter assay in LNCaP cells. Particulars: 1 nM Mib, 24 h, FIG. 3A.
In experiment [14] the test system is 6-kb PSA promoter. The experiment is described as follows: PSA promoter-luciferase reporter assay in LNCaP cells. The note with it: concentration as low as 25 μM, 1 nM Mib, 24 h.
Experiment [15] deals with STAT3. The experiment is described as follows: STAT3 responsive element luciferase reporter in LNCaP cells. Particulars: celecoxib 50 μM, nimesulide 100 μM, IL6 25-50 ng/ml, six hours.
[16] abbreviates: FIG. 1, dose-dependent, LNCaP and LAPC-4 cells, 1 nM Mib.

In the case of peroxovanadate [POV], the “phosphorylation of STAT3 in the absence of IL6” value in experiment [1] (50 μM POV alone) was “no effect”.
Broadly, the IC50 is the midpoint of a concentration-inhibition curve. As to `COc1ccc2c(c1)c(CC(=O)O)c(C)n2C(=O)c1ccc(Cl)cc1` [Indomethacin], the IC50 in experiment [2] (Homo sapiens, 144 h) is greater than 300 µM; in experiment [3] (Homo sapiens, 144 h), 224 µM; in experiment [4] (Homo sapiens, 144 h), 272 µM; in [5] (Homo sapiens, LAPC4, 144 h) it was 170 µM; in experiment [6] (Homo sapiens, LAPC4, 144 h) it was 203 µM; in experiment [7] (Homo sapiens, 144 h) it was 207 µM.
With `CC(C(=O)O)c1cccc(Oc2ccccc2)c1` (centres unmarked) [Fenoprofen], the IC50 in [2] (Homo sapiens, 144 h) is greater than 300 µM; in experiment [3] (Homo sapiens, 144 h), 210 µM; in experiment [4] (Homo sapiens, 144 h), 229 µM.
For `CC(=O)Oc1ccccc1C(=O)O` [Aspirin], the IC50 in [2] (Homo sapiens, 144 h) was greater than 1000 µM; in [3] (Homo sapiens, 144 h), greater than 1000 µM; in experiment [4] (Homo sapiens, 144 h), greater than 1000 µM; in [5] (Homo sapiens, LAPC4, 144 h) it was greater than 1000 µM; in [6] (Homo sapiens, LAPC4, 144 h), greater than 1000 µM; in [7] (Homo sapiens, 144 h), greater than 1000 µM.
For the molecule `CC(C(=O)O)c1ccc(-c2ccccc2)c(F)c1` (centres unmarked) [Flurbiprofen], the IC50 was greater than 300 µM in experiment [2] (Homo sapiens, 144 h); 206 µM in [3] (Homo sapiens, 144 h); 281 µM in experiment [4] (Homo sapiens, 144 h); 347 µM in experiment [5] (Homo sapiens, LAPC4, 144 h); 234 µM in experiment [6] (Homo sapiens, LAPC4, 144 h); 221 µM in experiment [7] (Homo sapiens, 144 h).
Regarding `CC1=C(CC(=O)O)c2cc(F)ccc2/C1=C\c1ccc([S+](C)[O-])cc1` (centres unmarked) [Sulindac], the IC50 in experiment [2] (Homo sapiens, 144 h) was greater than 300 µM; in [3] (Homo sapiens, 144 h) it was greater than 300 µM; in experiment [4] (Homo sapiens, 144 h), greater than 300 µM; in experiment [5] (Homo sapiens, LAPC4, 144 h) it was greater than 300 µM; in experiment [6] (Homo sapiens, LAPC4, 144 h), greater than 300 µM; in experiment [7] (Homo sapiens, 144 h), greater than 300 µM.
Consider `CS(=O)(=O)Nc1ccc([N+](=O)[O-])cc1Oc1ccccc1` [Nimesulide], for which the half-inhibitory concentration (IC50) came to 38.2 µM in experiment [2] (Homo sapiens, 144 h); 27 µM in experiment [3] (Homo sapiens, 144 h); 23 µM in experiment [4] (Homo sapiens, 144 h); 104 µM in experiment [5] (Homo sapiens, LAPC4, 144 h); 76.5 µM in experiment [6] (Homo sapiens, LAPC4, 144 h); 61 µM in experiment [7] (Homo sapiens, 144 h). Moreover, the “expression of PSA” value in experiment [3] (setting [16]) was “suppressed”. Further, in [4] (setting [16]), the “expression of hK2” value is given as “suppressed”. Moreover, the “androgen-up-regulated FKBP51 protein expression” value in [8] is given as “alleviated”. In addition, the AR protein expression result in [9] was “reduced”. Further, the c-Jun protein entry in [10] is “strongly induced”. For the same molecule, in experiment [11], the “androgen receptor-mediated expression of the reporter gene activated by IL6 or IL6 plus androgen” value is reported as “inhibit”. Moreover, the “phosphorylation of STAT3 by IL6” value in experiment [1] (celecoxib 50 μM, nimesulide 100 μM, IL6 25-50 ng/ml) is “significantly suppressed”. For the same molecule, the “AR/ARE-mediated gene expression (hK2 3xARE reporter)” value in [12] is reported as “significantly reduced”. For the same molecule, the “transcription activities of the AR promoter (−1380/+577)” value in experiment [13] is “repressed”. Moreover, in experiment [14], the “androgen-induced PSA promoter activity” value was “significantly reduced”. In addition, the “STAT3-specific responsive element-mediated luciferase expression activated by IL6” value in experiment [15] is recorded as “inhibited”.
With `CC1=C(CC(=O)O)c2cc(F)ccc2/C1=C\c1ccc(S(C)(=O)=O)cc1` [Sulindac sulfone], the IC50 is greater than 300 µM in experiment [2]; 206 µM in [3]; 97.6 µM in [4]; 253 µM in experiment [5]; 194 µM in [6]; greater than 300 µM in [7].
As for `Cc1cnc(NC(=O)C2=C(O)c3ccccc3S(=O)(=O)N2C)s1` [Meloxicam], the IC50 in experiment [2] (Homo sapiens, 144 h) was 193 µM; in experiment [3] (Homo sapiens, 144 h), 300 µM; in experiment [4] (Homo sapiens, 144 h) it was 377 µM; in experiment [5] (Homo sapiens, LAPC4, 144 h), 92 µM; in experiment [6] (Homo sapiens, LAPC4, 144 h), greater than 300 µM; in experiment [7] (Homo sapiens, 144 h), greater than 300 µM.
With `CC(C(=O)O)c1cccc(C(=O)c2ccccc2)c1` (centres unmarked) [Ketoprofen], the half-maximal inhibitory concentration (IC50) was greater than 300 µM in experiment [2] (Homo sapiens, 144 h); greater than 300 µM in experiment [3] (Homo sapiens, 144 h); greater than 300 µM in [4] (Homo sapiens, 144 h); greater than 300 µM in experiment [5] (Homo sapiens, LAPC4, 144 h); greater than 300 µM in [6] (Homo sapiens, LAPC4, 144 h); greater than 300 µM in experiment [7] (Homo sapiens, 144 h).
With `Cc1ccc(-c2cc(C(F)(F)F)nn2-c2ccc(S(N)(=O)=O)cc2)cc1` [Celecoxib], the IC50 was 20 µM in experiment [3] (Homo sapiens, 144 h); 29.6 µM in [4] (Homo sapiens, 144 h); 44.5 µM in experiment [5] (Homo sapiens, LAPC4, 144 h); 28.7 µM in [6] (Homo sapiens, LAPC4, 144 h); 43.7 µM in experiment [7] (Homo sapiens, 144 h).
For the molecule `CC(C)Cc1ccc(C(C)C(=O)O)cc1` (centres unmarked) [Ibuprofen], the concentration for half-maximal inhibition (IC50) in experiment [2] (Homo sapiens, 144 h) is greater than 1000 µM; in experiment [3] (Homo sapiens, 144 h), 783 µM; in experiment [4] (Homo sapiens, 144 h), 860 µM; in experiment [5] (Homo sapiens, LAPC4, 144 h), 740 µM; in [6] (Homo sapiens, LAPC4, 144 h) it was 870 µM; in [7] (Homo sapiens, 144 h), 803 µM.
